In publication PMC11995222, “Synthesis and Evaluation of Thiazolidinone-Isatin Hybrids for Selective Inhibition of Cancer-Related Carbonic Anhydrases” (ACS Medicinal Chemistry Letters, 2025):
Entries after “also recorded” stand apart in the source; their conditions may differ.

What was measured:
[1] = Cellular toxicity assay (MTT); type: cell-based, human; details: human, HuH-7 cells, MTT
HuH-7 cells = experiment: Cellular toxicity assay (MTT); type: cell-based, human; details: HuH-7 cells, 24, 48 and 72 h, up to 100 µM

| Compound | CC50 at 24 h ([1]; 24h) [µM] | CC50 at 48 h ([1]; 48h) [µM] | CC50 at 72 h ([1]; 72h) [µM] | viability at 24 h, 100 µM ([1]; 24h, highest concentration (100 µM), read-out: Percentage of HuH-7 cells viability at the highest compound concentration tested, 24h) [%] | viability at 48 h, 100 µM ([1]; 48h, highest concentration (100 µM), read-out: Percentage of HuH-7 cells viability at the highest compound concentration tested, 48h) [%] | viability at 72 h, 100 µM ([1]; 72h, highest concentration (100 µM), read-out: Percentage of HuH-7 cells viability at the highest compound concentration tested, 72h) [%] | toxicity (in words) (HuH-7 cells) |
| --- | --- | --- | --- | --- | --- | --- | --- |
| CC[C@@]1(O)C(=O)OCc2c1cc1n(c2=O)Cc2cc3ccccc3nc2-1 [Camptothecin, reference compound] | > 10 | 8.5 ± 0.9 | 0.5 ± 0.02 | – | – | – | – |
| NS(=O)(=O)c1ccc(/N=C2\S/C(=C3\C(=O)Nc4c(F)cccc43)C(=O)N2C2CC2)cc1 [compound 3h] | > 100 | > 100 | > 100 | 70 | 60 | 60 | weak toxicity; also recorded: nontoxic |
